“Also recorded” adds a separate entry of the source. Structures can show the parent of a compound that is named as a salt.
Tests used:
Ect cells [1] = test: Cytokine release in transwells (FlowCytomix bead assay); format: cell-based, human; settings: for IL-6 secretion induced by TLR3 agonist PIC / IL-8 secretion induced by TLR3 agonist PIC / IL-1RA production: 0.3% acid pH 3.9 or media acidified to pH 3.9 with HCl; for IL-1RA production: absence or presence of PIC
Experimental: (§1) Cytokines were measured using FlowCytomix assays, utilising the basic reagents kit, in conjunction with simplex kits for IL-6, IL-8 and IL-1RA (eBiosciences).
(§2) Test Procedure • 1. Calculate required volumes of reagents and make standards, bead mixtures and biotin-conjugate as described above. • 2. Add 15 μL of either standard, sample or blank (1× assay buffer) to appropriately labelled tubes. • 3. Add 15 μL of prepared bead mixture to each tube. • 4. Add 30 μL of biotin-conjugate mix to each tube, mix tubes well and incubate at room temp for 2 hours. Protect samples from light with foil. • 5. Prepare Streptavidin-PE mix. • 6. Add 0.6 ml 1× assay buffer to each tube and centrifuge at 200 g for 5 min. • 7. Discard s/n, leaving approx. 100 μL. Repeat for a total of 2 washes. • 8. Add 30 μL of Streptavidin-PE mix to all tubes, mix well and incubate at room temp for 1 hour (protected from light). • 9. Add 0.6 ml 1× assay buffer to each tube and centrifuge at 200 g for 5 min. • 10. Discard s/n, leaving approx. 100 μL. Repeat for a total of 2 washes. • 11. Discard s/n from final wash, leaving 100-200 μL of buffer. Analyse samples on the flow cytometer within 24 hours (preferable the same day as the experiment).
(§3) The following concentrations of TLR agonists (Table 3.) have been used to activate FGT cells either alone of added with LA-containing media for 18-24 hours.

[2] = system: ectocervical (Ect) epithelial cells
[3] = system: vaginal (VK2) epithelial cells
[4] = system: endocervical (End) epithelial cells
[5] = system: epithelial cells from the lower female reproductive tract; test: Cytotoxicity in a standard plate format; format: cell-based, human; settings: 0.4% L-lactic acid, standard plate format (data not shown)
VK2 cells = test: Cytokine release in transwells (FlowCytomix bead assay); format: cell-based, human
Experimental: (§4) An analysis was performed to determine if physiologic noncytotoxic concentrations of L-LA alter the release of immune modulators by VK2, End and Ect cells by incubating cells in transwells with L-LA for 24 h at 37° C. in serum free keratinocyte medium and harvesting supernatants (from the apical chamber) for release of immune modulators.
as §1, §2, §3

End cells = test: as above; format: cell-based, human
Experimental: as §4, §1, §2, §3

Ect cells [6] = test: as above; format: cell-based, human; settings: 0.3%
[7] = system: human female reproductive tissue; settings: low pH; cited from earlier work
[8] = system: primary ectocervical cells; test: Cytokine/chemokine production by primary cells in transwells; format: cell-based, human; settings: 0.3% LA, PIC or both
Excerpt: Culture of Human Primary Ectocervical Cells in Transwells. To further qualify the data in Example 9, we repeated the experiment with primary ectocervical cells.

[9] = system: Ect1 E6/E7 ectocervical epithelial cell line; test: Cyto/chemokine analysis (Procartaplex, Luminex) after 1 hour treatment; format: cell-based, human; settings: Ect; for IL-1RA production from cells stimulated with PIC, acid alone / PIC-induced cytokine production, acid alone: 0.03% benzoic acid or 0.15% citric acid; for PIC-induced cytokine production, acid alone: compared with low pH alone (HCl); for LA-induced production of IL-1RA in the presence of the acid: 0.3% LA with 0.03% benzoic acid or 0.15% citric acid; for IL-1RA production, no TLR agonist / IL-6 basal production, no TLR agonist: 1 hour treatment at pH 3.9 (acids at various concentrations, gels diluted to about 0.3% LA), supernatant after 18 hours; for other immune mediators (IL-8, MIP3α, TNF, IL-1B, RANTES), no TLR agonist: 1 hour treatment at pH 3.9, not shown; for LA inhibition of PIC-induced IL-8, IL-6 and TNF in the presence of the acid: PIC and 0.3% LA with 0.03% benzoic acid or 0.15% citric acid
[10] = system: Ect1 E6/E7 ectocervical epithelial cell line; test: Viability (MTS) 18 hours after 1 hour treatment; settings: range of concentrations, pH 3.9, 1 hour incubation, read 18 hours later
Experimental: The human ectocervical epithelial cell line Ect1 E6/E7 was utilized for these experiments. Cells were cultured and treated in serum free keratinocyte media (SFKM) containing supplements as per ATCC recommendations. Cells were seeded in 6 mm transwell inserts at a density of 100,000 cells per well, and cultured for 7 days prior to treatment. […] Cytokine-containing supernatants were collected and stored at −80° C. for future analysis and cell viability assessed via MTS assay as per manufacturer's recommendations.
NOTE: The pH of all treatment media containing gels/acids was adjusted to pH 3.9 (to match that of 0.3% LA) prior to treatment. This was performed to ensure that a similar concentration of protonated LA, the active form of LA, was compared. A pH control (media adjusted to pH 3.9 with HCl) was included to determine the effect of low pH alone.
Due to the poor buffering capacity of HCl, treatments containing HCl were refreshed every 20 min during the 1 hour treatment time to ensure the low pH of the treatment media was maintained.

[11] = 0.3% acid (pH 3.9) or low pH alone (pH 3.9 with HCl)
[12] = 0.3% in apical medium, pH 3.9, 24 h
[13] = 0.3%, pH 3.9, absence or presence of PIC
[14] = added to the apical medium in the transwell system, 24 hr
[15] = PIC 1 hour with 0.3% LA or gels diluted to about 0.3% LA, pH 3.9

C[C@@H](O)C(=O)O [D-LA, D-(−)-lactic acid]
IL-6 secretion induced by TLR3 agonist PIC (Ect cells [1]): reduce secretion
IL-8 secretion induced by TLR3 agonist PIC (Ect cells [1]): reduce secretion
IL-1RA production (Ect cells [1]): increase IL-1RA production

Cl [HCl, Hydrochloric acid, reference compound]
effect on cell viability [2, 11]: non-toxic
IL-6 secretion induced by TLR3 agonist PIC (Ect cells [1]): neither neutralised L-LA nor HCl acidified media had any significant effect
IL-8 secretion induced by TLR3 agonist PIC (Ect cells [1]): neither neutralised L-LA nor HCl acidified media had any significant effect
IL-1RA production (Ect cells [1]): neither neutralised L-LA nor HCl acidified media had any significant effect
effect on cell viability [3, 11]: non-toxic
effect on cell viability [4, 11]: non-toxic

C[C@H](O)C(=O)O [L-LA, L-(+)-lactic acid]
cytotoxicity in standard plate format [5]: highly cytotoxic
IL-6 secretion induced by TLR3 agonist PIC (VK2 cells; [12]): reduces secretion
IL-8 secretion induced by TLR3 agonist PIC (VK2 cells; [12]): reduces secretion
IL-1RA production with Pam3Ck (TLR2) and lipopolysaccharide (TLR4) (VK2 cells; 0.3%, pH 3.9): same result
IL-1RA production (VK2 cells; [13]): induces IL-1RA production
IL-6 secretion induced by TLR3 agonist PIC (End cells; [12]): reduces secretion
IL-8 secretion induced by TLR3 agonist PIC (End cells; [12]): reduces secretion
IL-1RA production with Pam3Ck (TLR2) and lipopolysaccharide (TLR4) (End cells; 0.3%, pH 3.9): same result
IL-1RA production (End cells; [13]): induces IL-1RA production
L-lactic acid concentrations tolerated [2, 14]: up to 0.4%
IL-6 secretion induced by TLR3 agonist PIC (Ect cells [1]): reduce secretion; also recorded: reduced the production
IL-8 secretion induced by TLR3 agonist PIC (Ect cells [1]): reduce secretion; also recorded: reduced the production
IL-1RA production (Ect cells [1]): induces IL-1RA production; also recorded: increase IL-1RA production; also recorded: significant increase
decreasing levels of proinflammatory cytokines (IL-6, IL-8) induced by PIC, neutralised (Ect cells [1]; 0.3% at pH 7.4): neither neutralised L-LA nor HCl acidified media had any significant effect
increasing the production of IL-1RA, neutralised (Ect cells [1]; 0.3% at pH 7.4): neither neutralised L-LA nor HCl acidified media had any significant effect
treatment time sufficient for the effects on IL-1RA, IL-6, IL-8, TNFα, RANTES and MIP3α (Ect cells [1]; 0.3% with or without PIC for 0.5, 1 or 18 hrs, cytokines measured at 18 hrs): 30 min
IL-1RA production with Pam3Ck (TLR2) and lipopolysaccharide (TLR4) (Ect cells [1]; 0.3%, pH 3.9): same result
L-lactic acid concentrations tolerated [3, 14]: up to 0.4%
L-lactic acid concentrations tolerated [4, 14]: up to 0.4%
MIP3α production induced by TLR agonist (PIC) (Ect cells [6]): reduced the production
RANTES production induced by TLR agonist (PIC) (Ect cells [6]): reduced the production
TNFα production induced by TLR agonist (PIC) (Ect cells [6]): reduced the production

CC(O)C(=O)O (centres unmarked) [LA, lactic acid]
inflammatory activity on human female reproductive tissue [7]: pro-inflammatory
production of IL-1RA, IL-6, IL-8, TNFα, RANTES and MIP3α [8]: trend similar to that of LA treatment of cells lines
IL-1β production, no TLR agonist ([9]; 1 hour treatment, levels below the limit of detection (data not shown)): small increase
PIC-induced production of IL-6 [9, 15]: inhibits
PIC-induced production of IL-8 [9, 15]: inhibits
PIC-induced production of TNF [9, 15]: inhibits

O=C(O)c1ccccc1 [benzoic acid, Benzoic acid]
IL-1RA production from cells stimulated with PIC, acid alone [9]: neither citric nor benzoic acid altered
PIC-induced cytokine production, acid alone [9]: did not appear to alter
LA-induced production of IL-1RA in the presence of the acid [9]: largely preserved
IL-1RA production, no TLR agonist [9]: Neither acid was associated with an altered expression
IL-6 basal production, no TLR agonist [9]: Neither acid was associated with an altered expression
other immune mediators (IL-8, MIP3α, TNF, IL-1B, RANTES), no TLR agonist [9]: similarly unaltered
LA inhibition of PIC-induced IL-8, IL-6 and TNF in the presence of the acid [9]: persists
viability of Ect cells, acid excipients [10]: Neither benzoic nor citric acid had any significant effect

O=C(O)CC(O)(CC(=O)O)C(=O)O [citric acid, Citric acid]
IL-1RA production from cells stimulated with PIC, acid alone [9]: neither citric nor benzoic acid altered
PIC-induced cytokine production, acid alone [9]: did not appear to alter
IL-1RA production, acid in combination with PIC and LA ([9]; 0.15% citric acid, compared to cells stimulated with LA and PIC): reduced production
LA-induced production of IL-1RA in the presence of the acid [9]: largely preserved
IL-1RA production, no TLR agonist [9]: Neither acid was associated with an altered expression
IL-6 basal production, no TLR agonist [9]: Neither acid was associated with an altered expression
other immune mediators (IL-8, MIP3α, TNF, IL-1B, RANTES), no TLR agonist [9]: similarly unaltered
LA inhibition of PIC-induced IL-8, IL-6 and TNF in the presence of the acid [9]: persists
